Measurements as given in patent US20110124634A1, “BIOACTIVE COMPOUNDS FOR TREATMENT OF CANCER AND NEURODEGENERATIVE DISEASES” (PONIARD PHARMACEUTICALS, INC., priority 2008, published 2011).

Columns and labels:
Assay type in all cases: cell-based
[1] = test system: SKBR-3; assay: MTS assay (cytotoxicity), growth inhibition of SKBR-3; details: Homo sapiens, SK-BR-3, 120 h, Table 5, series III, 5 days, read-out: Growth Inhibition (IC50) SKBR-3
Protocol: (§1) Cells were seeded in 96-well plates at 2000 cells/well in a final culture volume of 100 ul for 24 hours before the addition of 25 ul of increasing concentrations of inhibitors that was incubated for 5 days. Viable cell number was determined using the CellTiter 96 AQueous One Solution Cell Proliferation Assay (Promega). Plates were read at 490 nm absorbance 2-4 hours after addition of the MTS reagent using a multiwell plate spectrophotometer. Background was determined by measuring the Abs 490 nm of cell culture medium and MTS in the absence of cells. The background value was subtracted from all values. Absorbance 490 nm values for each inhibitor were plotted against the log 10 inhibitor concentration, and IC50 values were calculated using a nonlinear least-square curve fitting program in Prism 5.

[2] = test system: MCF-7; assay: MTS assay (cytotoxicity), growth inhibition of MCF-7; details: Homo sapiens, MCF7, 120 h, Table 5, series III, 5 days, read-out: Growth Inhibition (IC50) MCF-7
Protocol: as §1

[3] = test system: BT474; assay: MTS assay (cytotoxicity), growth inhibition of BT474; details: Homo sapiens, BT-474, 120 h, Table 5, series III, 5 days, read-out: Growth Inhibition (IC50) BT474
Protocol: as §1

[4] = test system: HSP90 client protein Her2 in SKBR-3 cells; assay: Her-2 degradation assay (Her-2 ELISA) in SKBr-3 cells; details: Homo sapiens
Protocol: Most of the compounds synthesized were evaluated for their ability to induce degradation of the HSP90 client protein Her2 in SKBR-3 cells. Selected compounds were evaluated in a fluorescence polarization (FP) assay for their affinity to HSP90.
SKBr-3 cells grown in McCoy's 5a Medium supplemented with 10% fetal bovine serum (FBS) were plated into 12-well plates at 50% confluency. Increasing concentrations of inhibitors were added 24 hours later (cells are 65-70% confluent) and incubated overnight for 18 hours. The wells were washed with 2 ml of phosphate buffered saline (PBS), and 50 ul of trypsin was added to each well. After trypsinization was complete, 150 ul of FBS was added to each well. Then 200 ul of cells were transferred to 96-well plates and plates were centrifuged at 1200 rpm for 2 minutes using a tabletop centrifuge. The cells were washed once with 250 ul PBS before being lysed with 100 ul of 50 mM Tris (pH 7.4), 0.1% NP-40 lysis buffer. Protein concentrations of clarified lysates were determined using the BCA Assay (Calbiochem) according to the manufacturer's instructions. 2 ug of each lysate was analyzed in the human sp 185 Her-2 ELISA (Bender Medsystems) according to the manufacturer's instructions. ELISA plates were read at 450 nm using a multiwell plate spectrophotometer. Background was determined by measuring the Abs 450 nm of wells with no lysate added. The background value was subtracted from all values. Absorbance 450 nm values for each inhibitor were plotted against the log 10 inhibitor concentration, and IC50 values were calculated using a nonlinear least-square curve fitting program in Prism 5.

[5] = test system: HT29; assay: MTS assay (cytotoxicity), growth inhibition of HT29; details: Homo sapiens, HT-29, 120 h, Table 5, series III, 5 days, read-out: Growth Inhibition (IC50) HT29
Protocol: as §1

[6] = SK-BR-3, Table 5, series III, 18 hours

In the case of `COc1c(C)cnc(CN2C(=O)/C(=C\c3cc(C(=O)NCCN4CCC(O)CC4)c[nH]3)c3c(Cl)nc(N)nc32)c1C` [III-33, (Z)-5-((2-Amino-4-chloro-7-((4-methoxy-3,5-dimethylpyridin-2-yl)methyl)-6-oxo-6,7-dihydro-5H-pyrrolo[2,3-d]pyrimidin-5-ylidene)methyl)-N-(2-(4-hydroxypiperidin-1-yl)ethyl)-1H-pyrrole-3-carboxamide], the IC50 [1] is reported as 0.6 nM, the IC50 [2] is reported as 110 nM and the IC50 [3] is reported as 3 nM. It also gave an IC50 [4, 6] of 40 nM and an IC50 [5] of 20 nM.
Work on `COc1c(C)cnc(CN2C(=O)/C(=C\c3cc(C(=O)N(CCO)CCO)c[nH]3)c3c(Cl)nc(N)nc32)c1C` [III-27, (Z)-5-((2-Amino-4-chloro-7-((4-methoxy-3,5-dimethylpyridin-2-yl)methyl)-6-oxo-6,7-dihydro-5H-pyrrolo[2,3-d]pyrimidin-5-ylidene)methyl)-N,N-bis(2-hydroxyethyl)-1H-pyrrole-3-carboxamide] yielded an IC50 [1] of 50 nM, an IC50 [2] of 330 nM and an IC50 [3] of 80 nM. For the same compound, the IC50 [4, 6] was 130 nM and the IC50 [5] was 130 nM.
`COc1c(C)cnc(CN2C(=O)/C(=C\c3cc(C(=O)CN4CCOCC4)c[nH]3)c3c(Cl)nc(N)nc32)c1C` [III-93, (Z)-2-Amino-4-chloro-7-((4-methoxy-3,5-dimethylpyridin-2-yl)methyl)-5-((4-(2-morpholinoacetyl)-1H-pyrrol-2-yl)methylene)-5H-pyrrolo[2,3-d]pyrimidin-6(7H)-one] gave an IC50 [1] of 10 nM, an IC50 [2] of 130 nM and an IC50 [3] of 60 nM. For the same compound, the IC50 [4, 6] was 20 nM.
Compound `COc1c(C)cnc(CN2C(=O)/C(=C\c3[nH]c(C)c(C(=O)NCCN4CCCCC4)c3C)c3c(Cl)nc(N)nc32)c1C` [III-105, (Z)-5-((2-Amino-4-chloro-7-((4-methoxy-3,5-dimethylpyridin-2-yl)methyl)-6-oxo-6,7-dihydro-5H-pyrrolo[2,3-d]pyrimidin-5-ylidene)methyl)-2,4-dimethyl-N-(2-(piperidin-1-yl)ethyl)-1H-pyrrole-3-carboxamide] has an IC50 [1] of 100 nM, an IC50 [2] of over 1000 nM and an IC50 [3] of 1280 nM. For the same compound, the IC50 [4, 6] was 70 nM.
For `COc1c(C)cnc(CN2C(=O)/C(=C\c3[nH]c(C)c(C(=O)NCCN4CCOCC4)c3C)c3c(Cl)nc(N)nc32)c1C` [III-103, (Z)-5-((2-Amino-4-chloro-7-((4-methoxy-3,5-dimethylpyridin-2-yl)methyl)-6-oxo-6,7-dihydro-5H-pyrrolo[2,3-d]pyrimidin-5-ylidene)methyl)-2,4-dimethyl-N-(2-morpholinoethyl)-1H-pyrrole-3-carboxamide], the IC50 [1] was 40 nM, the IC50 [2] was 810 nM and the IC50 [3] was 110 nM. It also gave an IC50 [4, 6] of 70 nM.
For `COc1c(C)cnc(CN2C(=O)/C(=C\c3[nH]c(C)c(C(=O)NCCN4CCC(O)CC4)c3C)c3c(Cl)nc(N)nc32)c1C` [III-107, (Z)-5-((2-Amino-4-chloro-7-((4-methoxy-3,5-dimethylpyridin-2-yl)methyl)-6-oxo-6,7-dihydro-5H-pyrrolo[2,3-d]pyrimidin-5-ylidene)methyl)-N-(2-(4-hydroxypiperidin-1-yl)ethyl)-2,4-dimethyl-1H-pyrrole-3-carboxamide], the IC50 [1] was 5 nM, the IC50 [2] was 230 nM and the IC50 [3] was 20 nM. The IC50 [4, 6] was 20 nM.
With `COc1c(C)cnc(CN2C(=O)/C(=C\c3[nH]c(C)c(C(=O)NCCN4CCCC4)c3C)c3c(Cl)nc(N)nc32)c1C` [III-104, (Z)-5-((2-Amino-4-chloro-7-((4-methoxy-3,5-dimethylpyridin-2-yl)methyl)-6-oxo-6,7-dihydro-5H-pyrrolo[2,3-d]pyrimidin-5-ylidene)methyl)-2,4-dimethyl-N-(2-(pyrrolidin-1-yl)ethyl)-1H-pyrrole-3-carboxamide] the IC50 [1] was 10 nM, the IC50 [2] was 5880 nM and the IC50 [3] was 190 nM. For the same compound, the IC50 [4, 6] was 10 nM.
In the case of `COc1cc(CN2CC(=O)N(CC(C)C)c3c(Cl)nc(N)nc32)c(Cl)c(OC)c1OC` [Example I-36], the IC50 ([4]; SK-BR-3, Table 3, 18 hours, means of three independent experiments) is reported as over 5000 nM.
With `COc1c(C)cnc(CN2C(=O)/C(=C\c3cc(C(=O)NCCN4CCC(=O)CC4)c[nH]3)c3c(Cl)nc(N)nc32)c1C` [III-36, (Z)-5-((2-Amino-4-chloro-7-((4-methoxy-3,5-dimethylpyridin-2-yl)methyl)-6-oxo-6,7-dihydro-5H-pyrrolo[2,3-d]pyrimidin-5-ylidene)methyl)-N-(2-(4-oxopiperidin-1-yl)ethyl)-1H-pyrrole-3-carboxamide] the IC50 [1] was 0.9 nM, the IC50 [2] was 410 nM and the IC50 [3] was 3 nM. The IC50 [4, 6] was 8 nM.
`CCN(CC)CC(=O)c1c[nH]c(/C=C2\C(=O)N(Cc3ncc(C)c(OC)c3C)c3nc(N)nc(Cl)c32)c1` [III-95, (Z)-2-Amino-4-chloro-5-((4-(2-(diethylamino)acetyl)-1H-pyrrol-2-yl)methylene)-7-((4-methoxy-3,5-dimethylpyridin-2-yl)methyl)-5H-pyrrolo[2,3-d]pyrimidin-6(7H)-one] showed an IC50 [1] of 2 nM, an IC50 [2] of 710 nM and an IC50 [3] of 20 nM. For the same compound, the IC50 [4, 6] was 10 nM.
`COc1c(C)cnc(CN2C(=O)/C(=C\c3nc(NC(=O)C(C)C)c[nH]3)c3c(Cl)nc(N)nc32)c1C` [III-71, (Z)-N-(2-((2-Amino-4-chloro-7-((4-methoxy-3,5-dimethylpyridin-2-yl)methyl)-6-oxo-6,7-dihydro-5H-pyrrolo[2,3-d]pyrimidin-5-ylidene)methyl)-1H-imidazol-4-yl)isobutyramide] was tested, and the IC50 [1] was 30 nM, the IC50 [2] was 370 nM and the IC50 [3] was 80 nM. For the same compound, the IC50 [4, 6] was 50 nM.
`CCN(CC)CCCc1ccc(/C=C2\C(=O)N(Cc3ncc(C)c(OC)c3C)c3nc(N)nc(Cl)c32)[nH]1` [III-86] gave an IC50 [1] of 1130 nM, an IC50 [2] of 1370 nM and an IC50 [3] of 760 nM. It also gave an IC50 [4, 6] of 310 nM.
Compound `COc1c(C)cnc(CN2C(=O)/C(=C\c3[nH]c(C)c(C(=O)NCCN4CCS(=O)(=O)CC4)c3C)c3c(Cl)nc(N)nc32)c1C` [III-106, 5-[2-Amino-4-chloro-7-(4-methoxy-3,5-dimethyl-pyridin-2-ylmethyl)-6-oxo-6,7-dihydro-pyrrolo[2,3-d]pyrimidin-(5Z)-ylidenemethyl]-2,4-dimethyl-1H-pyrrole-3-carboxylic acid [2-(1,1-dioxo-thiomorpholin-4-yl)-ethyl]-amide] has an IC50 [1] of 40 nM, an IC50 [2] of 240 nM and an IC50 [3] of 90 nM. It also gave an IC50 [4, 6] of 40 nM.
With `CCN(CC)CCNC(=O)c1c[nH]c(/C=C2\C(=O)N(Cc3nc(C)c(C)s3)c3nc(N)nc(Cl)c32)c1` [III-69, (Z)-5-((2-Amino-4-chloro-7-((4,5-dimethylthiazol-2-yl)methyl)-6-oxo-6,7-dihydro-5H-pyrrolo[2,3-d]pyrimidin-5-ylidene)methyl)-N-(2-(diethylamino)ethyl)-1H-pyrrole-3-carboxamide] the IC50 [1] was 10 nM, the IC50 [2] was 770 nM and the IC50 [3] was 60 nM. For the same compound, the IC50 [4, 6] was 10 nM.
With `CCN(CC)CCCNC(=O)c1c[nH]c(/C=C2\C(=O)N(Cc3ncc(C)c(OC)c3C)c3nc(N)nc(Cl)c32)c1` [III-29, (Z)-5-((2-Amino-4-chloro-7-((4-methoxy-3,5-dimethylpyridin-2-yl)methyl)-6-oxo-6,7-dihydro-5H-pyrrolo[2,3-d]pyrimidin-5-ylidene)methyl)-N-(3-(diethylamino)propyl)-1H-pyrrole-3-carboxamide] the IC50 [1] was 20 nM, the IC50 [2] was 410 nM and the IC50 [3] was 30 nM. For the same compound, the IC50 [4, 6] was 70 nM.
In the case of `Cc1nc(CN2C(=O)/C(=C\c3cc(C(=O)NCCN4CCOCC4)c[nH]3)c3c(Cl)nc(N)nc32)sc1C` [III-70], the IC50 [1] is reported as 20 nM, the IC50 [2] is reported as 320 nM and the IC50 [3] is reported as 80 nM. For the same compound, the IC50 [4, 6] was 40 nM.
